How the values were obtained:
[1] = target: T1, human 5HT1A-serotonergic receptor (Homo sapiens, UniProt P08908); test: Radioligand binding to recombinant 5-HT1A receptors; settings: 1 nM [3H]8-OH-DPAT, membranes of HeLa cells transfected with human 5HT1A receptor; Ki from IC50 by Cheng & Prusoff; read-out: Binding affinity for 5HT1A receptors, Ki
T1 construct: expressed in transfected cells; cell membranes
T1 sequence (P08908 1-422): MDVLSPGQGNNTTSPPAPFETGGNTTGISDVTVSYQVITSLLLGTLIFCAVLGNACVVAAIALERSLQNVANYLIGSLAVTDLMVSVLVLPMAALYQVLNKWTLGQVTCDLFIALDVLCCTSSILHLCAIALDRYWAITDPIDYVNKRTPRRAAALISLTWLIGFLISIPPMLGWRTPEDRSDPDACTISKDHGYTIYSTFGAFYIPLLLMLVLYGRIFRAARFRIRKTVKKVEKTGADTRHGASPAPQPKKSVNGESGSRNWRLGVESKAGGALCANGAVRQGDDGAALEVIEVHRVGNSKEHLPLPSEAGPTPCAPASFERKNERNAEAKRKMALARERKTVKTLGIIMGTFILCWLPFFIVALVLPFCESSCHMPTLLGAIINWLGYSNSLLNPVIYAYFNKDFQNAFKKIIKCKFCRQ
Experimental: Genomic clone G-21 coding for the human 5HT1A-serotonergic receptor was stably transfected in a human cell line (HeLa). HeLa cells were grown as monolayers in Dulbecco's modified Eagle medium (DMEM), containing 10% foetal bovine serum, gentamicin ([…]) and 5% carbon dioxide, at 37° C. The cells were detached from the growth flask at 95% confluence by a cell scraper and were lysed in cold 5 mM Tris and 5 mM EDTA buffer (pH 7.4). The homogenates were centrifuged at 40000×g×20 minutes and the pellets were resuspended in a small volume of cold 5 mM Tris and 5 mM EDTA buffer (pH 7.4) and immediately frozen and stored at −70° C. until use. On the day of experiment, the cell membranes were resuspended in incubation buffer: 50 mM Tris HCl (pH 7.4), 2.5 mM MgCl2, […] (Fargin et al., Nature 335, 358-360, 1988). […] Non-specific binding was determined in the presence of 10 μM 5-HT. […]
The affinity of the tested compounds was evaluated as inhibition of specific binding of the radioligand to 5-HT1A receptors (IC50) by using the non-linear curve-fitting program Allfit (De Lean et al., Am. J. Physiol. 235, E97-E102 (1978). The IC50 value was converted to an affinity constant (Ki) by the equation of Cheng & Prusoff (Cheng Y. C., Prusoff W. H., Biochem. Pharmacol. 22, 3099-3108 (1973)).

[2] = tested on: bladder volume capacity (BVC) and micturition pressure (MP); test: Effect on cystometric parameters in conscious rats after oral administration; type: in vivo, rat; settings: 3 mg/kg p.o., 1-5 h after treatment, versus vehicle
Experimental: Male Sprague-Dawley rats [Crl: CD° (SD) BR] of 300-400 g supplied by Charles River Italia were used. The animals were housed with free access to food and water and maintained on a forced 12-hour-light/12-hour-dark cycle at 22-24° C. of temperature, except during the experiment. To quantify urodynamic parameters in conscious rats, cystometrographic studies were performed according to the procedure previously reported (Guarneri et al., Pharmacol. Res. 24: 175, 1991).
Briefly, the rats were anaesthetised by intraperitoneal administration of 3 ml/kg of Equithensin solution (pentobarbital 30 mg/kg and chloral hydrate 125 mg/kg) and placed in a supine position. An approximately-10-mm-long midline incision was made in the shaved and cleaned abdominal wall. The urinary bladder was gently freed from adhering tissues, emptied and then cannulated via an incision in the bladder body, using a polyethylene cannula (0.58-mm internal diameter, 0.96-mm external diameter) which was permanently sutured with silk thread. The cannula was exteriorised through a subcutaneous tunnel in the retroscapular area, where it was connected to a plastic adapter in order to avoid the risk of removal by the animal. For drug testing, the rats were utilised one day after implantation.
On the day of the experiment, the rats were placed in modified Bollman cages, i.e. restraining cages that were large enough to permit the rats to adopt a normal crouched posture, but narrow enough to prevent turning around. […] The intraluminal-pressure signal during infusion of saline into the bladder was continuously recorded on a polygraph (Rectigraph-8K San-ei with BM614/2 amplifier from Biomedica Mangoni) and, from the cystometrogram, two urodynamic parameters were evaluated: bladder volume capacity (BVC) and micturition pressure (MP). […] Basal BVC and MP values were evaluated as mean of the values observed in the cystometrograms recorded in an initial period of 30-60 minutes. […] The bladder infusion restarted and changes in BVC and MP were evaluated from the mean values obtained in the cystometrograms observed during 1, 2, 3, 4 and 5 hours after treatment. […]
All data were expressed as mean±standard error. Time-course data were analysed by S.A.S./STAT software, version 6.12. The difference between vehicle and active-treatment effect was evaluated by: General Linear Model Procedure—Repeated Measures Analysis of Variance: Univariate test of Hypotheses for within Subject Effects—Analysis of Variance of Contrast Variables. […]

[3] = tested on: rhythmic bladder-voiding contractions; test: Effects on rhythmic bladder-voiding contractions induced by bladder filling in anaesthetised rats; type: in vivo, rat; settings: intravenous administration
Experimental: Female Sprague-Dawley rats weighing 225-275 g (Crl: CDo Br, Charles River Italia) were used. The animals were housed with free access to food and water and maintained on a forced 12-hour alternating light-dark cycle at 22-24° C. for at least one week, except during the experiment. The activity on rhythmic bladder voiding contractions was evaluated according to the method of Dray (Dray J., Pharmacol. Methods, 13:157, 1985), with some modifications as in Guarneri (Guarneri, Pharmacol. Res. 27:173, 1993). Briefly, the rats were anaesthetised by subcutaneous injection of 1.25 g/kg (5 ml/kg) urethane, after which the urinary bladder was catheterised via the urethra using PE 50 polyethylene tubing filled with physiological saline. […]
From the cystometrogram, the number of contractions recorded 15 minutes before (basal values) and after treatment, as well as the mean amplitude of these contractions (mean height of the peaks in mmHg), was evaluated.
Since most compounds produced an effect that was relatively rapid in onset and led to a complete cessation of bladder contractions, bioactivity was conveniently estimated by measuring the duration of bladder quiescence (i.e. the length of the time during which no contractions occurred). The number of tested animals showing a reduction in the number of contractions higher than 30% of that observed in the basal period was recorded too. […]

| Compound | Ki [1] | bladder volume capacity (BVC) change (in words) [2] | micturition pressure (MP) change (in words) [2] | cessation of bladder contractions (in words) [3] | effect on amplitude of the contractions (in words) [3] |
| --- | --- | --- | --- | --- | --- |
| 1-(2-Ethylbutanoyl-1,2,3,4-tetrahydroquinoline-2-ylmethyl)-4-(4-indolyl)-piperazine [Example 24A] | 12.9 nM |  |  |  |  |
| O=C(C1CCCCC1)N1c2ccccc2CCC1CN1CCN(c2cccc3[nH]ccc23)CC1 (racemic) [Example 1, 1-(1-Cyclohexanecarbonyl-1,2,3,4-tetrahydroquinoline-2-ylmethyl)-4-(4-indolyl)piperazine] |  | effective in increasing the bladder volume capacity | without significant effects on micturition pressure |  |  |
| CC(C)Oc1cc(Cl)ccc1N1CCN(CC2CCc3ccccc3N2C(=O)C2CCCCC2)CC1 (centres unmarked) [Example 60A] | 10.1 nM |  |  |  |  |
| CCN(CC)CC#CCOC(=O)C(O)(c1ccccc1)C1CCCCC1 (centres unmarked) [Oxybutynin, oxybutynin] |  | slight, not-significant increase of BVC | greatly reduced the micturition pressure values | does not cause cessation of bladder contractions | only decreased the amplitude of the contractions in a dose-related manner |

From US20030181446A1, “Novel N-acylated heterocycles” (Recordati S.A., priority 2001, published 2003)
